# Reference: patent EP4772505A1, “COMPOUND FOR DEGRADING ANDROGEN RECEPTOR AND MEDICAL USE THEREOF” (Ubix Therapeutics, Inc., priority 2023, dated 2025)
# Target: T1, Androgen Receptor (AR) (Homo sapiens, UniProt P10275, T878A)
# T1 construct: endogenous in cells; host or cells: LNCaP
# T1 sequence (P10275 1-920 T878A): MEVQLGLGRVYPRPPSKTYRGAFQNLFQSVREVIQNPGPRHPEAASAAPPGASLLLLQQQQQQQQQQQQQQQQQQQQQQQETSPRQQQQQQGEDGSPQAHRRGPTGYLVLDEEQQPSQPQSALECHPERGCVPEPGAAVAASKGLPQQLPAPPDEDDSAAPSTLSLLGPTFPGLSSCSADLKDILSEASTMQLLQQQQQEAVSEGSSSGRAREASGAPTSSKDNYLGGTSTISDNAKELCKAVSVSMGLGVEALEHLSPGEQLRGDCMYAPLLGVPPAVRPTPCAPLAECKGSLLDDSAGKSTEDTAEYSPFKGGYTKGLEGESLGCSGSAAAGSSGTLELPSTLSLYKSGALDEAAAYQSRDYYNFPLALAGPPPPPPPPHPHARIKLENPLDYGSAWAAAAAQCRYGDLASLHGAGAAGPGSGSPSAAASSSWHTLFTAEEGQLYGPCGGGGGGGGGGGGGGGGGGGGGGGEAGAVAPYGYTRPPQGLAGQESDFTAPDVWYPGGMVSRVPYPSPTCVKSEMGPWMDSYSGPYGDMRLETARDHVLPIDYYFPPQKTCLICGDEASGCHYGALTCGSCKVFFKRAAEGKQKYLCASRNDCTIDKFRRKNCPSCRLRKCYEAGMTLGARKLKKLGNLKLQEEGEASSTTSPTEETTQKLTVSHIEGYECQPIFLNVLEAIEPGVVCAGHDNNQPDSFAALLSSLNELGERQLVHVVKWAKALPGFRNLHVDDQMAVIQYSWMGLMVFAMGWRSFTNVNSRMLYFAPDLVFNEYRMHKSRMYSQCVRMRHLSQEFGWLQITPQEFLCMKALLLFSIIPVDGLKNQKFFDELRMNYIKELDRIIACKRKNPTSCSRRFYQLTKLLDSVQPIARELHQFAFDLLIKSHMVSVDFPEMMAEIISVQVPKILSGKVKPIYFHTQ
# Assay: Measurement of AR protein degradation in LNCaP cells by Western blotting
# Type: cell-based
# Details: LNCaP, 20 h, read-out: AR degradation in LNCaP cells (%)
# Procedure: The amount of AR protein present in LNCaP or VCaP cells was measured after treating them with the synthesized compound. The amount of AR protein was measured using Western blotting. The protocol for the experiments using LNCaP or VCaP cells was as follows.
# [Culture] LNCaP cells were resuspended in RPMI1640 medium + HEPES (Hyclone, SH30255.01), 10% FBS (Hyclone, SV30207.02), and 1% Penicillin-streptomycin (Welgene, LS 202-02). 3 x 10^5 cells/mL were seeded in 12-well plates (1 mL per well) and cultured for 3 days. VCaP cells were resuspended in IMDM MEDIUM (Hyclone, SH30228.01), 20% FBS (Hyclone, SV30207.02), and 1% Penicillin-streptomycin (Welgene, LS 202-02), seeded at 9 x 10^5/mL in 1 mL per 12-well plate, and cultured for 3 days.
# [Compound Treatment] 10 µL of 100x stock (e.g., 0.1, 1, 10 µM) compound solution at the final compound treatment concentration (e.g., 0.001, 0.01, 0.1 µM) was added to each well in 1 mL media, and cells were harvested after 20 hours. For DC50 measurement, 100x stock (0.01, 0.1, 1, 10, 100, 1000 µM) compound solutions at the final compound treatment concentration (0.0001, 0.001, 0.01, 0.1, 1, 10 µM) were used.
# [Cell lysis] The cell pellet was suspended using 1% SDS lysis buffer (50 mM Tris, 1 mM EDTA, 1% SDS, pH 8.0, 0.5 mM PMSF, 1x Protease/Phosphatase inhibitor Cocktail (Cell Signaling Technology, 5872S)), and sonication (70% AMP, 10 cycles (30 sec ON/59 sec OFF)) was performed. After centrifugation at 4°C and 20,000 g for 20 minutes, the cell lysate was obtained and transferred to a new tube.
# [Protein Quantification] A BCA protein assay (SMART™ BCA Protein Assay Kit, iNtRON Biotechnology, 21071) was performed using a 96-well microplate. 5 µL of cell lysate and 5 µL of 1% SDS lysis buffer were added to each well of the 96-well plate, followed by an additional 200 µL of BCA reagent (Reagent A: Reagent B = 50:1). The wells were incubated at 37°C for 30 minutes and cooled to room temperature for 10 minutes. After shaking for 10 seconds, the absorbance was measured at a wavelength of 562 nm. The unknown protein concentration was determined using a BSA standard curve (0, 0.125, 0.25, 0.5, 1, 2 mg/mL). Western blotting samples were prepared by mixing cell lysate, 1% SDS lysis buffer, 4x NuPAGE™ LDS Sample buffer (Invitrogen, NP0008), and 10X NuPAGE™ Sample Reducing Agent (Invitrogen, NP0009) and boiling at 70°C for 10 minutes.
# [Electrophoresis] 10 µg of protein sample was loaded into each well of a NuPAGE™ 4 to 12%, Bis-Tris, 1.0 mm Mini Protein Gel, 15-well, 17-well, or 26-well (Invitrogen, NP0323BOX, NP0329BOX, or WG1403BOX) and electrophoresed for 40 minutes using NuPAGE™MES SDS Running Buffer (Invitrogen, NP0002) at 200 V (constant V).
# [Transfer] Transfer was performed for 15 or 18 minutes using the electrophoresed gel and the Trans-Blot® Turbo™ Transfer Starter System (Bio-RAD, #17001918, Mini Nitrocellulose) at 1.3 A (constant A) and 25 V (limit V). To confirm protein transfer, 15 mL of Ponceau S solution (Sigma, P7170-1L) was used to stain for 1 minute, and then washed to check the degree of transfer.
# [Blocking] The membrane for AR and GAPDH detection was blocked with 5% skim milk/0.2% TBST (Skim milk: BD, 232100/ 20X TBS: Biosesang, TR2008-100-00/ 10% Tween 20 Solution: Bio-RAD, #161-0781) for 45 minutes.
# [Antibodies and Detection] Primary AR antibody (Androgen Receptor: CST, 5153S) was mixed with 5% skim milk/0.2% TBST at a ratio of 1:1,000 and reacted at room temperature for 3 hours or at 4°C overnight. Primary GAPDH antibody (CST, 2118S) was mixed with 5% skim milk/0.2% TBST at a ratio of 1:2,000 and reacted at room temperature for 3 hours or at 4°C overnight. Afterwards, TBST (0.2% Tween 20) was used for washing three times every 5 minutes. Secondary antibody to AR antibody, Anti-rabbit IgG, HRP-linked Antibody (CST, 7074S), was mixed with 5% skim milk/0.2% TBST at a ratio of 1:5,000 and reacted at room temperature for 45 minutes. […]
structure (smiles),measurement,value
"N#Cc1ccc(N2CCC(C(=O)Nc3ccc(OC4CCN(CC5CCN(c6ccc(NC7CCC(=O)NC7=O)cc6F)CC5)CC4)cn3)CC2)cc1Cl (centres unmarked) [Example 8, 1-(3-chloro-4-cyanophenyl)-N-(5-((1-((1-(4-((2,6-dioxopiperidin-3-yl)amino)-2-fluorophenyl)piperidin-4-yl)methyl)piperidin-4-yl)oxy)pyridin-2-yl)piperidine-4-carboxamide]",Dmax at 0.01 µM,91%
same,Dmax at 0.1 µM,98%
